Our source for the EC50 values is US12390536B2, “Antibody-drug complex containing toll-like receptor 7/8 dual agonist compound” (ASTELLAS PHARMA INC., priority 2022, dated 2025).

Each structure is given as a SMILES string. Counter-ions that a name gives are not always drawn.

For one assay, the target named is T1, mouse TLR7 (Mus musculus, UniProt P58681).
T1 construct: expressed in transfected cells
T1 sequence (P58681 27-1050): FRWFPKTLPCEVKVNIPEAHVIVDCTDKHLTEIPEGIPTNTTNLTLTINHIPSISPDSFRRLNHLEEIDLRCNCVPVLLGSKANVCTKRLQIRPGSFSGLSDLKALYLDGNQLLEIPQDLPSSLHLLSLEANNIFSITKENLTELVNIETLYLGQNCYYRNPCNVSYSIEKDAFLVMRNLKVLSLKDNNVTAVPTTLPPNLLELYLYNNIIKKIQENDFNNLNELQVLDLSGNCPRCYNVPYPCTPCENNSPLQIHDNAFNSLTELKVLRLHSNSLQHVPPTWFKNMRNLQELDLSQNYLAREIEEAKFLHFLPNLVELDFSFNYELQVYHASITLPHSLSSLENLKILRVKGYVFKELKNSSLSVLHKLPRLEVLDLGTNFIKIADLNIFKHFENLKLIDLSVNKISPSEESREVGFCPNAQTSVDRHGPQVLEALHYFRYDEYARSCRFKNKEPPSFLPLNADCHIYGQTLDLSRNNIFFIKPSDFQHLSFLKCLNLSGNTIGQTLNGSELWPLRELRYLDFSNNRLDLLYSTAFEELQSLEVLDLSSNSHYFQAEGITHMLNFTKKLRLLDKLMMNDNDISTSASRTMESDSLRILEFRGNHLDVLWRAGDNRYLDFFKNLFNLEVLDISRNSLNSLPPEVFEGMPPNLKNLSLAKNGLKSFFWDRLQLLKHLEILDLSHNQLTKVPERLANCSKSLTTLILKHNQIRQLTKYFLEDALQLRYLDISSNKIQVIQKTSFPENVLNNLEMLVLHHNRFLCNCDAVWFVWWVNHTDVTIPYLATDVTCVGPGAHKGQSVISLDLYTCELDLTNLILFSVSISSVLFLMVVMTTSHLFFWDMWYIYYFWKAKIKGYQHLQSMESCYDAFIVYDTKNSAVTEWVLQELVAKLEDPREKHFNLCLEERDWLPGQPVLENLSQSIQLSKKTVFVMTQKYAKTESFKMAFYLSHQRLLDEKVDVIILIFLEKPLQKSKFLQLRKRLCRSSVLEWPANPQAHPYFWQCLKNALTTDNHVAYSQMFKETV
Put plainly: TLR7/8 reporter assay (HEK293, NFκB Nanoluc luciferase reporter), mouse TLR7. The class given is cell-based. The note with it: 24-hour incubation; read-out: mTLR7 EC50. On the procedure:
(§1) HEK293 cells (ATCC, #CRL-1573) were co-transfected with an expression vector having a nucleotide sequence encoding a TLR (human TLR7, human TLR8 or mouse TLR7) protein and a Nanoluc PEST luciferase reporter vector having an NFκB response element sequence (Genbank: JQ513377 bases 33 to 84) integrated therein. Thereafter, the transfected cells were cultured in DMEM (Sigma-Aldrich, #D5796-500 mL) containing Geneticin (Gibco, #10131-027) at a final concentration of 800 μg/mL, Hygromycin B (Invitrogen, #10687010) at a final concentration of 500 μg/mL, penicillin streptomycin (Gibco, #15070-063) at a final concentration of 1% and a 10% fetal bovine serum (FBS) (HyClone, #SH30084.03) to obtain a stable cell line for expression.
(§2) To reporter cells obtained above, DMEM containing 10% FBS was added to prepare a suspension of 1×10^5 cells/mL. The suspension was added to the wells of a 384-well white plate coated with collagen I (hereinafter referred to as “384-well plate”, Corning, #356703) at a rate of 20 μL per well. The cells were cultured in the conditions of 37° C. and 5% CO2, overnight (18 hours) and allowed to adhere to the plate. A test sample was dissolved in DMSO. The solution was diluted by adding DMEM medium containing 10% FBS to the solution such that the concentration becomes 5-fold as high as a final concentration. The diluted DMEM medium was added to the wells of the 384-well plate at a ratio of 5 μL/well. After the medium was further incubated in the conditions of 37° C. and 5% CO2 for 24 hours, the plate was taken out and allowed to stand still at room temperature for 10 minutes. Thereafter, chemiluminescence was measured using Nano-Glo Luciferase Assay System (Promega, #N1120) and EnVision 2104 (PerkinElmer) plate reader. A dose-response curve was prepared for each test sample and the EC50 value was obtained as a concentration at 50% of the maximum signal. In the table, hTLR7 represents human TLR7 and hTLR8 represents human TLR8; and mTLR7 represents mouse TLR7. A data item attached with an asterisk (*) indicates the result of 7 hour-incubation and other data items are the results of 24-hour incubation.

In another assay the target is T2, human TLR7 (Homo sapiens, UniProt Q9NYK1).
T2 construct: expressed in transfected cells
T2 sequence (Q9NYK1 27-1049): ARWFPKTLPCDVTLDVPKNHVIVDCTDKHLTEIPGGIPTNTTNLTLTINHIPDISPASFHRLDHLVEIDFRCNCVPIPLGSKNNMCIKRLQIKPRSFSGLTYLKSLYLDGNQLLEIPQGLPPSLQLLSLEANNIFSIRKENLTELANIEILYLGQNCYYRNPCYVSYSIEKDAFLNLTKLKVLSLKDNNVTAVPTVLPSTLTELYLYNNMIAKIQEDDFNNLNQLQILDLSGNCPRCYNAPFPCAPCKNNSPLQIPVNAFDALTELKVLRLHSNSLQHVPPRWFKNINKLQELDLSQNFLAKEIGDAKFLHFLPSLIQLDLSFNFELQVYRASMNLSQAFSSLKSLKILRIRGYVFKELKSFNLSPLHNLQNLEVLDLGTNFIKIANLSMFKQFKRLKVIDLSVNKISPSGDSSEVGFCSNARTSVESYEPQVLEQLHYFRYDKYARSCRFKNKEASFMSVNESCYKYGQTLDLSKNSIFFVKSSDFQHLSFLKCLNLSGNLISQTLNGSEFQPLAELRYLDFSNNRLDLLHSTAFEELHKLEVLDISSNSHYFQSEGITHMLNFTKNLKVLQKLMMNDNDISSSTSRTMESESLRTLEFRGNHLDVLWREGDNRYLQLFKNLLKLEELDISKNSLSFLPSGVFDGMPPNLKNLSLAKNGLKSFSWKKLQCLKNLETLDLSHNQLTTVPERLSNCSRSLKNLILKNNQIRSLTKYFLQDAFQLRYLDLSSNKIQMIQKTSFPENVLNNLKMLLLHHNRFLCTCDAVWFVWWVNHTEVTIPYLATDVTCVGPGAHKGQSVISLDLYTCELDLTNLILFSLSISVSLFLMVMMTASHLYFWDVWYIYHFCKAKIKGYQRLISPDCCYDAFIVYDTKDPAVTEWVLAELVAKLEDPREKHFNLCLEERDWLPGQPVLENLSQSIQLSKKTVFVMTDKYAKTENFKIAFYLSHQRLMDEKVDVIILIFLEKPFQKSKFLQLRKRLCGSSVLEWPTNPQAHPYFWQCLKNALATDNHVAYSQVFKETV
The assay can be described thus: TLR7/8 reporter assay (HEK293, NFκB Nanoluc luciferase reporter), human TLR7. The class given is cell-based. The note with it: 24-hour incubation; read-out: hTLR7 EC50. On the procedure: as §1, §2

For `CCCCCNc1nc(N)nc2ccn(Cc3ccc(CN4CCNC[C@H]4CF)cc3OC)c12` [Ex1, 5-[(4-{[(2S)-2-(fluoromethyl)piperazin-1-yl]methyl}-2-methoxyphenyl)methyl]-N^4-pentyl-5H-pyrrolo[3,2-d]pyrimidine-2,4-diamine], the EC50 came to 2.92 nM on mouse TLR7 and 1.12 nM at human TLR7.
Taken in the same sequence, the figures for `CCCCCNc1nc(N)nc2ccn(Cc3ccc(CN4CCN[C@@H](CF)C4)cc3OC)c12` [Ex2, 5-[(4-{[(3R)-3-(fluoromethyl)piperazin-1-yl]methyl}-2-methoxyphenyl)methyl]-N^4-pentyl-5H-pyrrolo[3,2-d]pyrimidine-2,4-diamine (trifluoroacetic acid) salt] were 5.36 nM and 1.77 nM.
The like results for `CCCCCNc1nc(N)nc2ccn(Cc3ccc(CNC4CC4)cc3OC)c12` [Ex3, 5-({4-[(cyclopropylamino)methyl]-2-methoxyphenyl}methyl)-N^4-pentyl-5H-pyrrolo[3,2-d]pyrimidine-2,4-diamine] were, in that order, 6.17 nM and 3.47 nM.
Taken in the same sequence, the figures for `CCCCCSc1nc(N)nc2ccn(Cc3ccc(CN4CCNCC4)cc3OC)c12` [Ex4, 5-({2-methoxy-4-[(piperazin-1-yl)methyl]phenyl}methyl)-4-(pentylsulfanyl)-5H-pyrrolo[3,2-d]pyrimidin-2-amine] were 39.9 nM and 54.2 nM.
Consider `CCCCCSc1nc(N)nc2ccn(Cc3ccc(CN4CCC[C@H]4CO)cc3OC)c12` [Ex5, {(2S)-1-[(4-{[2-amino-4-(pentylsulfanyl)-5H-pyrrolo[3,2-d]pyrimidin-5-yl]methyl}-3-methoxyphenyl)methyl]pyrrolidin-2-yl}methanol], for which the EC50 is 26.7 nM on mouse TLR7 and 45 nM on human TLR7.
Taken in the same sequence, the figures for `CCCCCNc1nc(N)nc2c(Cl)cn(Cc3ccc(CN4CCC[C@H]4CO)cc3OC)c12` [Ex6, {(2S)-1-[(4-{[2-amino-7-chloro-4-(pentylamino)-5H-pyrrolo[3,2-d]pyrimidin-5-yl]methyl}-3-methoxyphenyl)methyl]pyrrolidin-2-yl}methanol] were 10.1 nM and 3.22 nM.
The like results for `CCCCCNc1nc(N)nc2c(Br)cn(Cc3ccc(CN4CCC[C@H]4CO)cc3OC)c12` [Ex7, {(2S)-1-[(4-{[2-amino-7-bromo-4-(pentylamino)-5H-pyrrolo[3,2-d]pyrimidin-5-yl]methyl}-3-methoxyphenyl)methyl]pyrrolidin-2-yl}methanol] were, in that order, 21.5 nM and 8.1 nM.
Taken in the same sequence, the figures for `CCCCCNc1nc(N)nc2cc(C)n(Cc3ccc(CN4CCNCC4)cc3OC)c12` [Ex8, 5-({2-methoxy-4-[(piperazin-1-yl)methyl]phenyl}methyl)-6-methyl-N^4-pentyl-5H-pyrrolo[3,2-d]pyrimidine-2,4-diamine hydrochloride] were 23.5 nM and 11.3 nM.
On to `CCCCCNc1nc(N)nc2ccn(Cc3ccc(CC4CCNCC4)cc3OC)c12` [Ex9, 5-({2-methoxy-4-[(piperidin-4-yl)methyl]phenyl}methyl)-N^4-pentyl-5H-pyrrolo[3,2-d]pyrimidine-2,4-diamine], for which the EC50 at mouse TLR7 amounted to 4.81 nM; at human TLR7 it was 2.78 nM.
The like results for `CCCCCNc1nc(N)nc2ccn(Cc3ccc(CN4CCNC[C@@H]4CF)cc3OC)c12` [Ex10, 5-[(4-{[(2R)-2-(fluoromethyl)piperazin-1-yl]methyl}-2-methoxyphenyl)methyl]-N^4-pentyl-5H-pyrrolo[3,2-d]pyrimidine-2,4-diamine] were, in that order, 8.75 nM and 2.74 nM.
With `COc1cc(CN2CCNC[C@H]2CF)ccc1Cn1ccc2nc(N)nc(SCc3cc(C)on3)c21` [Ex11], the concentration giving a half-maximal response (EC50) came out at 9.2 nM on mouse TLR7 and 17.8 nM on human TLR7.
The like results for `CCCCCNc1nc(N)nc2ccn(Cc3ccc(CNCC4CCC4)cc3OC)c12` [Ex12] were, in that order, 3.58 nM and 1.87 nM.
Taken in the same sequence, the figures for `CCCCCSc1nc(N)nc2ccn(Cc3ccc(CN4CC[C@H]4CO)cc3OC)c12` [Ex13] were 17.4 nM and 23.3 nM.
The like results for `CCCCCSc1nc(N)nc2ccn(Cc3ccc(CN4CCC(O)CC4)cc3OC)c12` [Ex14] were, in that order, 27.3 nM and 28.8 nM.
Regarding `CCCCCSc1nc(N)nc2ccn(Cc3ccc(CN4CC[C@@H](CN)C4)cc3OC)c12` [Ex15], the EC50 on mouse TLR7 is 111 nM; on human TLR7 it was 138 nM.
Taken in the same sequence, the figures for `CCCCCNc1nc(N)nc2c(Cl)cn(Cc3ccc(CN4CC[C@H]4CO)cc3OC)c12` [Ex17] were 7.11 nM and 2.52 nM.
For `CCCCCNc1nc(N)nc2c(Cl)cn(Cc3ccc(CN4CCC[C@H]4C(C)(C)O)cc3OC)c12` [Ex18], the EC50 at mouse TLR7 amounted to 13.9 nM; on human TLR7, 6.57 nM.
